How the values were obtained:
[1] = target: recombinant β-galactosidase (β-gal) (Escherichia coli, UniProt P00722); experiment: In gel fluorescence labeling efficiency on recombinant β-galactosidase; type: biochemical; details: 10 μM probe, 10 units β-gal and/or 50 μg BSA, 50 μL PBS, 37° C., 2 h; compared with NIR-BG2
Procedure: (§1) FIG. 4. Compare labeling efficiency using in gel fluorescence. 10 μM of NIR-BG2, NIR-BG3 or NIR-BG4 is incubated with 10 units of β-gal and/or 50 μg of BSA in total volume of 50 μL PBS solution were incubated at 37° C. for 2 h. Each lane was loaded with 10 μL of the reaction solution.
(§2) In certain examples, two carbamate analogues were synthesized: NIR-BG3 carrying ethyl carbamate and NIR-BG4 carrying an endocyclic carbamate. To compare these two analogues with NIR-BG2, the three probes were incubated with recombinant β-galactosidase (p-gal) and bovine serum albumin (BSA) and the labeling efficiency of these probes on P-gal and BSA was compared using gel electrophoresis.

[2] = target: bovine serum albumin (BSA) (Bos taurus, UniProt P02769); experiment: In gel fluorescence nonspecific labeling of BSA; type: biochemical; details: 10 μM probe, 50 μg BSA, 50 μL PBS, 37° C., 2 h; compared with NIR-BG2
Procedure: as §1, §2

[3] = system: CT26.WT and CT26.CL25 cells (stably transfected with LacZ); experiment: Fluorescent cell imaging and flow cytometry of CT26.WT and CT26.CL25 cells; type: cell-based; details: 10 μM probe
Procedure: FIG. 5. FIG. 5A: Fluorescent cell imaging of CT26. WT and CT26.CL25 cells after incubating with 10 μM of NIR-BG2 or NIR-BG3 in serum free medium for 2 hours at 37° C. Cells were fixed, permeabilized with 0.5% Triton X-100 and stained with DAPI. Scale bar: […]. FIG. 5B: Flow cytometry and FIG. 5C quantification of fluorescence in CT26.WT and CT26.CL25 cells after incubating with 10 μM of NIR-BG2 or NIR-BG3.
NIR-BG2 and NIR-BG3 were also compared in CT26.WT and CT26.CL25 that are stably transfected with LacZ.

bovine serum albumin (BSA), sequence (P02769 25-607): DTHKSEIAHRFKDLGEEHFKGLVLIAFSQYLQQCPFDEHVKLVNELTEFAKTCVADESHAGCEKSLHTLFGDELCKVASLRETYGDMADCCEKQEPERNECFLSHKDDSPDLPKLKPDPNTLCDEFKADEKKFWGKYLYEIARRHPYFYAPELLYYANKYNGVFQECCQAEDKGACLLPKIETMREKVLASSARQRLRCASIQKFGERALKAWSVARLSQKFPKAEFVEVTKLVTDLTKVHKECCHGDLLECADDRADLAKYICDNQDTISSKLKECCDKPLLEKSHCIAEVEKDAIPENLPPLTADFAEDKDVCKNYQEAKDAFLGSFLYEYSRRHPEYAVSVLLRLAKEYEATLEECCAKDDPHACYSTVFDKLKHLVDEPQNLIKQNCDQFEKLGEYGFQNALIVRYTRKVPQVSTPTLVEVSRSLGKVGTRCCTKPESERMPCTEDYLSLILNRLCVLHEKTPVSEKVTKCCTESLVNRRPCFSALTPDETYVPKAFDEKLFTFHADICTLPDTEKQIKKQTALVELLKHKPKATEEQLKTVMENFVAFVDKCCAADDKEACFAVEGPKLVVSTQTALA
recombinant β-galactosidase (β-gal), sequence (P00722 2-1024): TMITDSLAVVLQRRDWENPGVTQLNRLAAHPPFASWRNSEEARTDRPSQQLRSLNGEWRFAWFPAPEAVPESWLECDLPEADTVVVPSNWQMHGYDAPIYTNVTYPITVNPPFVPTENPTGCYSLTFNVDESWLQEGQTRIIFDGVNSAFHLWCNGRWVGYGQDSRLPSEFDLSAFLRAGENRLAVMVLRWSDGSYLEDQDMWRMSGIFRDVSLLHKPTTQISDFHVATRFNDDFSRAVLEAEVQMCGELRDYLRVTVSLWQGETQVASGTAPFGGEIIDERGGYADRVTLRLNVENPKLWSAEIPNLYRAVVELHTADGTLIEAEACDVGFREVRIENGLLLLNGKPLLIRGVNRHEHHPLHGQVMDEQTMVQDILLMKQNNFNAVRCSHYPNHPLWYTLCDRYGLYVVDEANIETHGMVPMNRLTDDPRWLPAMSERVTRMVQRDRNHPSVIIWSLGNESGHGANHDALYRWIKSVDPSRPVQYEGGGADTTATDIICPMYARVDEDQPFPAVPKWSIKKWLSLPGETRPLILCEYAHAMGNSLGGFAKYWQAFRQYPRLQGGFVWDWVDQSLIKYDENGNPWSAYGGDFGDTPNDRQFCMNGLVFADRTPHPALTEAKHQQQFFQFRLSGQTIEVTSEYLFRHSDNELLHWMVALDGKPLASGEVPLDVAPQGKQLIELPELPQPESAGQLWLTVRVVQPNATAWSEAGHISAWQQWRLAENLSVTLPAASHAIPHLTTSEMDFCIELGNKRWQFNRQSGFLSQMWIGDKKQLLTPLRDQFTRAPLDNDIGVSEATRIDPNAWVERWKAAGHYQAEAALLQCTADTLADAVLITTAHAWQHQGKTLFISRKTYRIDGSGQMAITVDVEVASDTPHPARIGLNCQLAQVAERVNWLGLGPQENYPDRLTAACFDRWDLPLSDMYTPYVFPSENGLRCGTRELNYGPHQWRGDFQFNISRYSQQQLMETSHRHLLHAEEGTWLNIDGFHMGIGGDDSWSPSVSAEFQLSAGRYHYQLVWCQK

SMILES	labeling efficiency (in gel fluorescence) [1]	nonspecific labeling of BSA [2]	contrast for CT26.CL25 cells over CT26.WT ([3]; serum free medium, 2 hours, 37° C.)	mean intensity compared to NIR-BG2 ([3]; FIG. 5)	background by flow cytometry ([3]; compared with NIR-BG2)	fluorescence by flow cytometry ([3]; compared with NIR-BG2)	fluorescent intensity (FIG. 5A and FIG. 5C) ([3]; compared with NIR-BG2)
CCC[N+]1=C(/C=C/C2=C3Oc4cc(OCc5ccc(O[C@@H]6OC(CO)[C@H](O)[C@H](O)C6O)cc5)c(COC(=O)N5CCCCC5)cc4C=C3CCC2)C(C)(C)c2ccccc21 (stereo partly drawn) [NIR-BG4]	significantly higher labeling efficiency	slightly higher nonspecific labeling of BSA					
CCC[N+]1=C(/C=C/C2=C3Oc4cc(OCc5ccc(O[C@@H]6OC(CO)[C@H](O)[C@H](O)C6O)cc5)c(COC(=O)NCC)cc4C=C3CCC2)C(C)(C)c2ccccc21 (stereo partly drawn) [NIR-BG3]	significantly higher labeling efficiency	slightly higher nonspecific labeling of BSA	strong contrast	about 2 fold	higher background	overall higher fluorescence	much higher than NIR-BG2
